Experimental data as given in patent US6376497B1, “Antifungal azole derivatives having a fluorinated vinyl group and process for preparing same” (Korea Research Institute of Chemical Technology, priority 1999, dated 2002).

Assays:
Experiment in all cases: In vitro antifungal activity, microbroth dilution MIC
Assay type in all cases: cell-based
[1] = tested on: Aspergillus furnigatus B. 19119; conditions: for Minimal inhibitory concentration(MIC), A furnigatus B. 19119: RPMI-1640, 35° C., no growth observed; for Minimal inhibitory concentration (MIC): A furnigatus B. 19119, RPMI-1640, 35° C.
Outline: (§1)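 Broth microdilution adapted from NCCLS M27, in RPMI-1640 with 0.165 M MOPS, pH 7.0. Yeast or mould inoculum at 2×10^3 CFU/ml was mixed 1:1 with DMSO-derived compound solutions (200 to 0.10 μg/ml before mixing) and incubated at 35 °C for 4 to 48 h. MIC was the concentration showing no growth.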

[2] = tested on: Aspergillus niger A. 16404; conditions: for Minimal inhibitory concentration(MIC), A. niger A. 16404: RPMI-1640, 35° C., no growth observed; for Minimal inhibitory concentration (MIC): A. niger A. 16404, RPMI-1640, 35° C.
Outline: as §1

[3] = tested on: Candida albicans A. 10231; conditions: 4 to 48 hours; for Minimal inhibitory concentration(MIC), C. albicans A. 10231: RPMI-1640, 35° C., no growth observed; for Minimal inhibitory concentration (MIC): C. albicans A. 10231, RPMI-1640, 35° C.
Outline: as §1

[4] = tested on: Candida albicans C1-2; conditions: 4 to 48 hours; for Minimal inhibitory concentration(MIC), C. albicans C1-2: RPMI-1640, 35° C., no growth observed; for Minimal inhibitory concentration (MIC): C. albicans C1-2, RPMI-1640, 35° C.
Outline: as §1

[5] = tested on: Candida albicans IFO. 1385; conditions: 4 to 48 hours; for Minimal inhibitory concentration(MIC), C. albicans IFO. 1385: RPMI-1640, 35° C., no growth observed; for Minimal inhibitory concentration (MIC): C. albicans IFO. 1385, RPMI-1640, 35° C.
Outline: as §1

[6] = tested on: Candida krusei K. 11655; conditions: 4 to 48 hours; for Minimal inhibitory concentration(MIC), C. krusei K. 11655: RPMI-1640, 35° C., no growth observed; for Minimal inhibitory concentration (MIC): C. krusei K. 11655, RPMI-1640, 35° C.
Outline: as §1

[7] = tested on: Candida parapsitosis A. 7330; conditions: 4 to 48 hours; for Minimal inhibitory concentration(MIC), C. parapsitosis A. 7330: RPMI-1640, 35° C., no growth observed; for Minimal inhibitory concentration (MIC): C. parapsitosis A. 7330, RPMI-1640, 35° C.
Outline: as §1

[8] = tested on: Candida pseudotropicalis K. 11658; conditions: 4 to 48 hours; for Minimal inhibitory concentration(MIC), C. pseudotropicalis K. 11658: RPMI-1640, 35° C., no growth observed; for Minimal inhibitory concentration (MIC): C. pseudotropicalis K. 11658, RPMI-1640, 35° C.
Outline: as §1

[9] = tested on: Candida tropicalis A. 13803; conditions: 4 to 48 hours; for Minimal inhibitory concentration(MIC), C. tropicalis A. 13803: RPMI-1640, 35° C., no growth observed; for Minimal inhibitory concentration (MIC): C. tropicalis A. 13803, RPMI-1640, 35° C.
Outline: as §1

[10] = tested on: Cryptococcus neoformans A. 34144; conditions: for Minimal inhibitory concentration(MIC), Cry. neoformans A. 34144: RPMI-1640, 35° C., no growth observed; for Minimal inhibitory concentration (MIC): Cry. neoformans A. 34144, RPMI-1640, 35° C.
Outline: as §1

[11] = tested on: Cryptococcus neoformans B. 42419; conditions: 4 to 48 hours; for Minimal inhibitory concentration(MIC), Cry. neoformans B. 42419: RPMI-1640, 35° C., no growth observed; for Minimal inhibitory concentration (MIC): Cry. neoformans B. 42419, RPMI-1640, 35° C.
Outline: as §1

[12] = tested on: Cryptococcus neoformans IFM. 40092; conditions: for Minimal inhibitory concentration(MIC), Cry. neoformans IFM. 40092: RPMI-1640, 35° C., no growth observed; for Minimal inhibitory concentration (MIC): Cry. neoformans IFM. 40092, RPMI-1640, 35° C.
Outline: as §1

[13] = tested on: Torulopsis glabrata B. 16205; conditions: 4 to 48 hours; for Minimal inhibitory concentration(MIC), T. glabrata B. 16205: RPMI-1640, 35° C., no growth observed; for Minimal inhibitory concentration (MIC): T. glabrata B. 16205, RPMI-1640, 35° C.
Outline: as §1

[14] = tested on: Trichophyton mentagrophytes A. 9129; conditions: for Minimal inhibitory concentration(MIC), T. mentagrophytes A. 9129: RPMI-1640, 35° C., no growth observed; for Minimal inhibitory concentration (MIC): T. mentagrophytes A. 9129, RPMI-1640, 35° C.
Outline: as §1

[15] = tested on: Trichophyton mentagrophytes B. 32663; conditions: for Minimal inhibitory concentration(MIC), T. mentagrophytes B. 32663: RPMI-1640, 35° C., no growth observed; for Minimal inhibitory concentration (MIC): T. mentagrophytes B. 32663, RPMI-1640, 35° C.
Outline: as §1

Row | SMILES | Minimal inhibitory concentration(MIC), A furnigatus B. 19119 ([1]; 4 to 48 hours) | Minimal inhibitory concentration(MIC), A. niger A. 16404 ([2]; 4 to 48 hours) | Minimal inhibitory concentration(MIC), C. albicans A. 10231 [3] | Minimal inhibitory concentration(MIC), C. albicans C1-2 [4] | Minimal inhibitory concentration(MIC), C. albicans IFO. 1385 [5] | Minimal inhibitory concentration(MIC), C. krusei K. 11655 [6] | Minimal inhibitory concentration(MIC), C. parapsitosis A. 7330 [7] | Minimal inhibitory concentration(MIC), C. pseudotropicalis K. 11658 [8] | Minimal inhibitory concentration(MIC), C. tropicalis A. 13803 [9] | Minimal inhibitory concentration(MIC), Cry. neoformans A. 34144 ([10]; 4 to 48 hours) | Minimal inhibitory concentration(MIC), Cry. neoformans B. 42419 [11] | Minimal inhibitory concentration(MIC), Cry. neoformans IFM. 40092 ([12]; 4 to 48 hours) | Minimal inhibitory concentration(MIC), T. glabrata B. 16205 [13] | Minimal inhibitory concentration(MIC), T. mentagrophytes A. 9129 ([14]; 4 to 48 hours) | Minimal inhibitory concentration(MIC), T. mentagrophytes B. 32663 ([15]; 4 to 48 hours) | Minimal inhibitory concentration (MIC) [3] | Minimal inhibitory concentration (MIC) [4] | further results
1 | FC(Oc1ccc(OCC2COC(Cn3ccnc3)(c3ccc(F)cc3F)O2)cc1)=C(c1cccc(C(F)(F)F)c1)C(F)(F)F (mixture of isomers) [Ex. 111] | >100 µg/mL | >100 µg/mL | 100 µg/mL | 50.0 µg/mL | 3.13 µg/mL | >100 µg/mL | 100 µg/mL | 100 µg/mL | >100 µg/mL | 1.56 µg/mL | 3.13 µg/mL | 0.39 µg/mL | 100 µg/mL | 6.25 µg/mL | 3.13 µg/mL |  |  | 
2 | FC(=Cc1ccc(F)cc1)OCC1COC(Cn2cncn2)(c2ccc(Cl)cc2Cl)O1 (mixture of isomers) [Ex. 77] | 100 µg/mL | >100 µg/mL |  |  | 25.0 µg/mL | 12.5 µg/mL | 12.5 µg/mL | 6.25 µg/mL | 100 µg/mL | 3.13 µg/mL | 1.56 µg/mL | 0.78 µg/mL | 50.0 µg/mL | 6.25 µg/mL | 6.25 µg/mL | 100 µg/mL | 100 µg/mL | 
3 | Cc1ccc(C=C(F)OCC2COC(Cn3cncn3)(c3ccc(Cl)cc3Cl)O2)cc1 (mixture of isomers) [Ex. 71] | 100 µg/mL | 100 µg/mL |  |  | 6.25 µg/mL | 100 µg/mL | 100 µg/mL | 25.0 µg/mL | 100 µg/mL | 1.56 µg/mL | 1.56 µg/mL | 0.20 µg/mL | 25.0 µg/mL | 6.25 µg/mL | 6.25 µg/mL | 50.0 µg/mL | 50.0 µg/mL | 
4 | FC(=C(c1ccc2c(c1)OCO2)C(F)(F)F)N1CCN(c2ccc(OCC3COC(Cn4ccnc4)(c4ccc(F)cc4F)O3)cc2)CC1 (mixture of isomers) [Ex. 145] |  |  | >100 µg/mL | >100 µg/mL | 0.78 µg/mL | 1.56 µg/mL | 3.13 µg/mL | 3.13 µg/mL | >100 µg/mL |  | 0.78 µg/mL |  | 100 µg/mL |  |  |  |  | Minimal inhibitory concentration(MIC), A furnigatus B. 19119 [1]: 100 µg/mL; Minimal inhibitory concentration(MIC), A. niger A. 16404 [2]: 100 µg/mL; Minimal inhibitory concentration(MIC), Cry. neoformans A. 34144 [10]: 3.13 µg/mL; Minimal inhibitory concentration(MIC), Cry. neoformans IFM. 40092 [12]: 0.78 µg/mL; Minimal inhibitory concentration(MIC), T. mentagrophytes A. 9129 [14]: 6.25 µg/mL; Minimal inhibitory concentration(MIC), T. mentagrophytes B. 32663 [15]: 1.56 µg/mL
5 | FC(=Cc1ccccc1)OCC1COC(Cn2ccnc2)(c2ccc(F)cc2F)O1 (mixture of isomers) [Ex. 36] |  |  |  |  |  |  |  |  |  |  |  |  |  |  |  | 50.0 µg/mL | 50.0 µg/mL | Minimal inhibitory concentration (MIC) ([1]; 4 to 48 hours): 1.56 µg/mL; Minimal inhibitory concentration (MIC) ([2]; 4 to 48 hours): 12.5 µg/mL; Minimal inhibitory concentration (MIC) [5]: 0.78 µg/mL; Minimal inhibitory concentration (MIC) [6]: 50.0 µg/mL; Minimal inhibitory concentration (MIC) [7]: 25.0 µg/mL; Minimal inhibitory concentration (MIC) [8]: 25.0 µg/mL; Minimal inhibitory concentration (MIC) [9]: 100 µg/mL; Minimal inhibitory concentration (MIC) ([10]; 4 to 48 hours): 6.25 µg/mL; Minimal inhibitory concentration (MIC) [11]: 3.13 µg/mL; Minimal inhibitory concentration (MIC) ([12]; 4 to 48 hours): 0.78 µg/mL; Minimal inhibitory concentration (MIC) [13]: 25.0 µg/mL; Minimal inhibitory concentration (MIC) ([14]; 4 to 48 hours): 1.56 µg/mL; Minimal inhibitory concentration (MIC) ([15]; 4 to 48 hours): 0.39 µg/mL
6 | Cc1cccc(C=C(F)OCC2COC(Cn3cncn3)(c3ccc(Cl)cc3Cl)O2)c1 (mixture of isomers) [Ex. 70] |  |  |  |  |  |  |  |  |  |  |  |  |  |  |  | 25.0 µg/mL | 25.0 µg/mL | Minimal inhibitory concentration (MIC) ([1]; 4 to 48 hours): 50.0 µg/mL; Minimal inhibitory concentration (MIC) ([2]; 4 to 48 hours): 100 µg/mL; Minimal inhibitory concentration (MIC) [5]: 6.25 µg/mL; Minimal inhibitory concentration (MIC) [6]: 100 µg/mL; Minimal inhibitory concentration (MIC) [7]: >100 µg/mL; Minimal inhibitory concentration (MIC) [8]: 50.0 µg/mL; Minimal inhibitory concentration (MIC) [9]: 100 µg/mL; Minimal inhibitory concentration (MIC) ([10]; 4 to 48 hours): 3.13 µg/mL; Minimal inhibitory concentration (MIC) [11]: 3.13 µg/mL; Minimal inhibitory concentration (MIC) ([12]; 4 to 48 hours): 0.78 µg/mL; Minimal inhibitory concentration (MIC) [13]: 25.0 µg/mL; Minimal inhibitory concentration (MIC) ([14]; 4 to 48 hours): 3.13 µg/mL; Minimal inhibitory concentration (MIC) ([15]; 4 to 48 hours): 3.13 µg/mL
7 | Cc1cccc(C(=C(F)N2CCN(c3ccc(OCC4COC(Cn5ccnc5)(c5ccc(Cl)cc5Cl)O4)cc3)CC2)C(F)(F)F)c1 (mixture of isomers) [Ex. 125] | >100 µg/mL | >100 µg/mL | 25.0 µg/mL | 25.0 µg/mL | 1.56 µg/mL | >100 µg/mL | >100 µg/mL | >100 µg/mL | 100 µg/mL | 1.56 µg/mL | 3.13 µg/mL | 0.39 µg/mL | 50.0 µg/mL | 6.25 µg/mL | 3.13 µg/mL |  |  | 
